Measured values: patent US10357481B2 (MERCK SHARP & DOHME CORP., priority 2015, dated 2019)

target: T1, human PDE2A1 (Homo sapiens, UniProt O00408); assay: IMAP FP PDE selectivity panel, human PDE2A1; type: biochemical; conditions: Lab B; read-out: Human PDE2 Ki (nM) Lab B
T1 construct: GST; purchased BPS Bioscience (San Diego, Calif.) 60020; host or cells: insect cells
Method in brief: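 IMAP FP read-out, run at room temperature in parallel with PDE1–11: enzyme at 20% substrate conversion, 50 nM FAM-cAMP containing 1000 nM cGMP, Tris pH 7.2/MgCl2/DTT buffer. Compounds as ten 3-fold dilutions. Reaction 60 min, stopped with binding reagent for 1 h before polarization measurement.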

T1 sequence (O00408 1-920 isoform O00408-2): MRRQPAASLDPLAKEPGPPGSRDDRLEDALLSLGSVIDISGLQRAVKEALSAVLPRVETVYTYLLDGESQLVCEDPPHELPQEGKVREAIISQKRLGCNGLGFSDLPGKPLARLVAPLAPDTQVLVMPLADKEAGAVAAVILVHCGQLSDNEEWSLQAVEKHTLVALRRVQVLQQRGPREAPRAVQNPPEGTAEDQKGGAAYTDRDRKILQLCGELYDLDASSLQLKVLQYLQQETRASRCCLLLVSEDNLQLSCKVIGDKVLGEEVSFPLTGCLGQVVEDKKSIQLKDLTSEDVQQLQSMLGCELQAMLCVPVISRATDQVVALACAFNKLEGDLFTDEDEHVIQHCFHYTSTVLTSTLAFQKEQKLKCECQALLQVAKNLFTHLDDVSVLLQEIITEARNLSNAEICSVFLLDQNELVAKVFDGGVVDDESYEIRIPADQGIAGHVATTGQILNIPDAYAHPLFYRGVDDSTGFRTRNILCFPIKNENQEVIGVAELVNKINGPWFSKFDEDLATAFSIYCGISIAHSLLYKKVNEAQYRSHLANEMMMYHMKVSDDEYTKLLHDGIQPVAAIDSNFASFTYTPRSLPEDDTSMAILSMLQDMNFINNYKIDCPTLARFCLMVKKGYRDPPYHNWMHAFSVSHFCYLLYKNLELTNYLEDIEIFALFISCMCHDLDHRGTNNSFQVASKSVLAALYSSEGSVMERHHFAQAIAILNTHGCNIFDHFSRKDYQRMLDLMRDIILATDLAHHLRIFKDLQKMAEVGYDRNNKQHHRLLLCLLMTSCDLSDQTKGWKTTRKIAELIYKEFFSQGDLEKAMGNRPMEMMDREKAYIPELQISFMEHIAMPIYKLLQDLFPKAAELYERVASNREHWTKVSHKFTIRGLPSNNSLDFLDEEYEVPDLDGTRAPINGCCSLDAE

| SMILES | Ki |
| --- | --- |
| Cc1cc(NC(c2ccc(C(F)(F)F)cn2)C(C)C)n2ncnc2n1 (single isomer, unassigned) [Example 211, (R)- or (S)-5-Methyl-N-(2-methyl-1-(5-(trifluoromethyl)pyridin-2-yl)propyl)-[1,2,4] triazolo[1,5-a] pyrimidin-7-amine] | ~2480 nM |
| Cc1cc(N[C@](C)(c2ccc(OC(F)(F)F)cc2)C(C)(C)O)n2ncnc2n1 [Example 154, (3R)-2-Methyl-3-[(5-methyl[1,2,4]triazolo[1,5-a]pyrimidin-7-yl)amino]-3-[4-(trifluoromethoxy)phenyl]butan-2-ol] | > 2960 nM |
| CC(C)(O)C(Nc1cc(C2CC2)nc2ncnn12)c1ccc(OC(F)(F)F)c(F)c1 (single isomer, unassigned) [Example 141, (1R or S)-1-[(5- Cyclopropyl [1,2,4]triazolo [1,5-a]pyrimidin-7-yl)amino]-1-[3-fluoro-4-(trifluoro-methoxy)phenyl]-2-methylpropan-2-ol] | 877 nM |
| Cc1cc(NC2(c3ccc(C(F)(F)F)cc3)CCCC2)n2ncnc2n1 [Example 67, 5-Methyl-N-{1-[4-(trifluoromethyl)phenyl]cyclopentyl}[1,2,4]triazolo [1,5-a]pyrimidin-7-amine] | 367 nM |
| CC[C@@H](Nc1cc(CO)cc2ncnn12)c1ccc(C(F)(F)F)c(F)c1 [Example 269, [5-({(1R)-1-[3-Fluoro-4-(trifluoromethyl)phenyl]propyl}amino)[1,2,4]triazolo [1,5-a]pyridin-7-yl] methanol] | 181 nM |
| Cc1nc2ncnn2c(NC2(c3ccc(C(F)(F)F)c(F)c3)CC2)c1C [Example 87, N-{1-[3-Fluoro-4-(trifluoromethyl)phenyl]cyclopropyl}-5,6-dimethyl[1,2,4]triazolo[1,5-a]pyrimidin-7-amine] | 132 nM |
| COCc1cc(N[C@@H](c2ccc(C(F)(F)F)c(F)c2)C(C)(C)C)n2ncnc2n1 [Example 76, N-{(1R)-1-[3-Fluoro-4-(trifluoromethyl)phenyl]-2,2-dimethylpropyl}-5-(methoxymethyl)[1,2,4]triazolo [1,5-a]pyrimidin-7-amine] | 969 nM |
| CC(C)c1cc(NC(c2ccc(OC(F)(F)F)c(F)c2)C(C)(C)O)n2ncnc2n1 (single isomer, unassigned) [Example 138, (1S or R)-1-[3-Fluoro-4-(trifluoro-methoxy)phenyl]-2-methyl-1-{[5-(1-methylethyl) [1,2,4]triazolo [1,5-a]pyrimidin-7-yl]amino} propan-2-ol] | ~1570 nM |
| CC(C)(C)[C@@H](Nc1cc(O)nc2ncnn12)c1ccc(C(F)(F)F)c(F)c1 [Example 238, (R)-7-(1-(3-Fluoro-4-(trifluoromethyl)phenyl)-2,2-dimethylpropylamino)-[1,2,4]triazolo[1,5-a]pyrimidin-5-ol] | 335 nM |
| Cc1cc(NC2(c3ccc(C(F)(F)F)cc3)COC2)n2ncnc2n1 [Example 199, 5-Methyl-N-(3-(4-(trifluoromethyl)phenyl)oxetan-3-yl)-[1,2,4]triazolo [1,5-a]pyrimidin-7-amine] | 167 nM |
| Cc1cc(NC2(c3ccc(C(F)(F)F)c(F)c3)CC2)n2nc(CF)nc2n1 [Example 197, N-(1-(3-Fluoro-4-(trifluoromethyl)phenyl)cyclopropyl)-2-(fluoromethyl)-5-methyl-[1,2,4]triazolo [1,5-a]pyrimidin-7-amine] | 80 nM |
| Cc1cc(NC(c2cc3ccccc3n2C)C(C)(C)O)n2ncnc2n1 (single isomer, unassigned) [Example 124, (1S or R)-2-Methyl-1-(1-methyl-1H-indol-2-yl)-1-[(5-methyl [1,2,4]triazolo [1,5-a]pyrimidin-7-yl)amino] propan-2-ol] | 79 nM |
| CNc1cc(N[C@@H](c2ccc(C(F)(F)F)c(F)c2)C(C)(C)C)n2ncnc2n1 [Example 241, (R)-N^7-(1-(3-Fluoro-4-(trifluoromethyl)phenyl)-2,2-dimethylpropyl)-N^5-methyl-[1,2,4]triazolo [1,5-a]pyrimidine-5,7-diamine] | 375 nM |
| Cc1cc(N[C@@H](C)c2ccc(C(F)(F)F)cc2)n2ncnc2n1 [Example 2, 5-Methyl-N-{(1S)-1-[4-(trifluoromethyl)phenyl]ethyl}[1,2,4]triazolo[1,5-a]pyrimidin-7-amine] | ~1540 nM |
| Cc1cc(N[C@H](C)c2ccc(C(F)(F)F)c(Cl)c2)n2ncnc2n1 [Example 5, N-{(1R)-1-[3-Chloro-4-(trifluoromethyl)phenyl]ethyl}-5-methyl[1,2,4]triazolo[1,5-a] pyrimidin-7-amine] | 113 nM |
| Cc1cc(N[C@@H](c2ccc(C(F)(F)F)cc2)C(C)(C)O)n2ncnc2c1 [Example 265, (1S)-2-Methyl-1-[(7-methyl[1,2,4]triazolo[1,5-a]pyridin-5-yl)amino]-1-[4-(trifluoromethyl)phenyl]propan-2-ol] | 82 nM |
| Cc1cc(NC(C)(C)c2ccc(C(F)(F)F)cc2)n2ncnc2n1 [Example 53, 5-Methyl-N-{1-methyl-1-[4-(trifluoromethyl)phenyl]ethyl} [1,2,4]triazolo[1,5-a]pyrimidin-7-amine] | 99 nM |
| CCOc1cc(N[C@@H](c2ccc(C(F)(F)F)c(F)c2)C(C)(C)C)n2ncnc2n1 [Example 234, (R)-5-Ethoxy-N-(1-(3-fluoro-4-(trifluoromethyl)phenyl)-2,2-dimethylpropyl)-[1,2,4]triazolo [1,5-a]pyrimidin-7-amine] | 1230 nM |
| Cc1cc(NC(C)(C)c2ccc(OC(F)(F)F)cc2)n2ncnc2n1 [Example 49, 5-Methyl-N-{1-methyl-1-[4-(trifluoromethoxy)phenyl]ethyl} [1,2,4]triazolo[1,5-a]pyrimidin-7-amine] | 301 nM |
| CC(C)c1cc(NC(c2ccc(C(F)(F)F)cc2)C(C)(C)O)n2ncnc2n1 (stereo in doubt) [Example 156, (1S)-2-Methyl-1-{[5-(1-methylethyl)[1,2,4]triazolo[1,5-a]pyrimidin-7-yl]amino}-1-[4-(trifluoromethyl)phenyl]propan-2-ol] | 636 nM |
| CC(C)(C)c1cc(NC(c2ccc(OC(F)(F)F)cc2F)C(C)(C)O)n2ncnc2n1 (single isomer, unassigned) [Example 148, (1S or R)-1-[(5-tert-butyl[1,2,4]triazolo[1,5-a]pyrimidin-7-yl)amino]-1-[2-fluoro-4-(trifluoro-methoxy)phenyl]-2-methylpropan-2-ol] | > 2960 nM |
| Cc1cc(N[C@H](C)c2ccc(C(C)C)cc2)n2ncnc2n1 [Example 13, 5-Methyl-N-{(1R)-1-[4-(1-methylethyl)phenyl]ethyl}[1,2,4] triazolo[1,5-a]pyrimidin-7-amine] | 122 nM |
| CC(C)(O)C(Nc1cc(C(F)F)nc2ncnn12)c1ccc(OC(F)F)cc1F (single isomer, unassigned) [Example 182] | > 2960 nM |

The next compounds have a lower Ki than those just listed; values first:

| Ki | SMILES |
| --- | --- |
| 72 nM | CC(C)(C)c1cc(NC2(c3ccc(C(F)(F)F)c(F)c3)CC2)n2ncnc2n1 [Example 73] |
| 3.7 nM | Fc1cc(C2(Nc3cc(C4CC4)nc4ncnn34)CC2)ccc1C(F)(F)F [Example 70, 5-Cyclopropyl-N-{1-[3-fluoro-4-(trifluoromethyl)phenyl]cyclopropyl}[1,2,4]triazolo[1,5-a]pyrimidin-7-amine] |
| 6.3 nM | Cc1cc(N[C@@H](c2ccc(S(F)(F)(F)(F)F)cc2)C(C)(C)C)n2ncnc2n1 [Example 36, N-{(1R)-2,2-Dimethyl-1-[4-(pentafluoro-λ^6-sulfanyl)phenyl]propyl}-5-methyl [1,2,4]triazolo[1,5-a]pyrimidin-7-amine] |
| 4 nM | Cc1cc(N[C@@H](c2ccc(SC(F)(F)F)c(F)c2)C(C)C)n2ncnc2n1 [Example 21, N-[(1R)-1-{3-Fluoro-4-[(trifluoromethyl)sulfanyl]phenyl}-2-methylpropyl]-5-methyl[1,2,4]triazolo[1,5-a] pyrimidin-7-amine] |
| 2.1 nM | Cc1cc(N[C@@H](c2ccc(SC(F)(F)F)cc2)C(C)(C)C)n2ncnc2n1 [Example 29, N-[(1R)-2,2-Dimethyl-1-{4-[(trifluoromethyl)sulfanyl]phenyl}propyl]-5-methyl[1,2,4]triazolo[1,5-a] pyrimidin-7-amine] |
| 56 nM | Cc1cc(N[C@@H](c2ccc(C(F)(F)F)c(F)c2)C(C)(C)C)n2nc(C)nc2n1 [Example 202, (R)-N-(1-(3-Fluoro-4-(trifluoromethyl)phenyl)-2,2-dimethylpropyl)-2,5-dimethyl-[1,2,4]triazolo [1,5-a]pyrimidin-7-amine] |
| 68 nM | Fc1cc(C2(Nc3cc(C(F)(F)F)cc4ncnn34)CC2)ccc1C(F)(F)F [Example 276, N-(1-(3-fluoro-4-(trifluoromethyl)phenyl)cyclopropyl)-7-(trifluoromethyl)-[1,2,4]triazolo[1,5-a]pyridin-5-amine] |
| 23 nM | Cc1cc(N[C@@H](c2ccc(C(F)(F)F)c(F)c2)C2(C)CC2)n2ncnc2n1 [Example 43, N-[(R)-[3-Fluoro-4-(trifluoromethyl)phenyl](1-methylcyclopropyl)methyl]-5-methyl[1,2,4]triazolo[1,5-a] pyrimidin-7-amine] |
| 57 nM | Cc1cc(N[C@H](C)c2ccc(OC(F)(F)F)c(F)c2)n2ncnc2n1 [Example 8, N-{(1R)-1-[3-Fluoro-4-(trifluoromethoxy)phenyl]ethyl}-5-methyl[1,2,4]triazolo[1,5-a] pyrimidin-7-amine] |
| 26 nM | FS(F)(F)(F)(F)c1ccc(C2(Nc3cc(C4CC4)nc4ncnn34)CC2)cc1 [Example 72, 5-Cyclopropyl-N-{1-[4-(pentafluoro-λ^6-sulfanyl)phenyl]cyclopropyl}[1,2,4] triazolo[1,5-a]pyrimidin-7-amine] |
| 21 nM | Cc1cc(N[C@H](C)c2ccc(SC(F)(F)F)cc2)n2ncnc2n1 [Example 10, 5-Methyl-N-[(1R)-1-{4-[(trifluoromethyl)sulfanyl]phenyl}ethyl][1,2,4]triazolo[1,5-a]pyrimidin-7-amine] |
